From ChEMBL document CHEMBL6134859, “Unlocking the antiviral arsenal: Structure-guided optimization of small-molecule inhibitors against RSV and hCoV-229E” (Eur J Med Chem, 2025)
In brackets after ≈: the same amount, converted by molar mass.

Test: Kinetic solubility of the compound in 1%DMSO/PBS measured after 5 mins
Type: physicochemical
Settings: read-out: Kinetic_solubility

COc1ccc(C(C)=O)cc1COc1ncnc2c(-c3ccncc3)cccc12
solubility kinetic at 5 min: 32 µM (≈ 12.3 µg/mL)

COc1ccc(C(C)=O)cc1COc1ncnc2cccc(Cl)c12
solubility kinetic at 5 min: 54 µM (≈ 18.5 µg/mL)

COc1ccc(C(C)=O)cc1CNc1ncnc2c(Cl)cc(Cl)cc12
solubility kinetic at 5 min: > 100 µM

COc1ccc(C(C)=O)cc1COc1ncnc2c(C)cccc12
solubility kinetic at 5 min: 57 µM (≈ 18.4 µg/mL)

Clc1cc(Cl)c2ncnc(OCc3ccc(Br)cc3)c2c1
solubility kinetic at 5 min: 12 µM (≈ 4.61 µg/mL)

COC(=O)c1ccccc1COc1ncnc2c(Cl)cc(Cl)cc12
solubility kinetic at 5 min: 22 µM (≈ 7.99 µg/mL)

CCc1ccc(OC)c(COc2ncnc3c(Cl)cc(Cl)cc23)c1
solubility kinetic at 5 min: 34 µM (≈ 12.4 µg/mL)

COc1ccc(C(C)=O)cc1C(=O)Nc1ncnc2c(Cl)cc(Cl)cc12
solubility kinetic at 5 min: > 100 µM

COc1ccc(C(C)=O)cc1COc1ncnc2c(F)cccc12
solubility kinetic at 5 min: > 100 µM

COc1ccc(C(C)=O)cc1CSc1ncnc2c(Cl)cc(Cl)cc12
solubility kinetic at 5 min: 17 µM (≈ 6.69 µg/mL)

Clc1cc(Cl)c2ncnc(OCc3cccc4c3OCO4)c2c1
solubility kinetic at 5 min: 21 µM (≈ 7.33 µg/mL)

O=C(O)c1cccc(COc2ncnc3c(Cl)cc(Cl)cc23)c1
solubility kinetic at 5 min: > 100 µM

COc1ccc(C(C)=O)cc1COc1ncnc2c(Cl)ccc(Cl)c12
solubility kinetic at 5 min: 37 µM (≈ 14 µg/mL)

COc1cccc(COc2ncnc3c(Cl)cc(Cl)cc23)c1
solubility kinetic at 5 min: 22 µM (≈ 7.37 µg/mL)

COc1ccc(C(C)=O)cc1COc1ncnc2c(S(C)(=O)=O)cccc12
solubility kinetic at 5 min: > 100 µM

COc1ccc(C(C)=O)cc1COc1ncnc2c(Br)cccc12
solubility kinetic at 5 min: 41 µM (≈ 15.9 µg/mL)

COc1ccc(C(C)=O)cc1COc1ncnc2c(OCc3cc(C(C)=O)ccc3OC)cccc12
solubility kinetic at 5 min: 53 µM (≈ 25.8 µg/mL)

Clc1cc(Cl)c2ncnc(OCc3ccccc3-c3ccccc3)c2c1
solubility kinetic at 5 min: 16 µM (≈ 6.1 µg/mL)

COc1ccc(C(C)=O)cc1COc1ncnc2ccc(Cl)cc12
solubility kinetic at 5 min: 60 µM (≈ 20.6 µg/mL)

COc1ccc(C(C)=O)cc1COc1ncnc2c(C#N)cccc12
solubility kinetic at 5 min: > 100 µM

Clc1cc(Cl)c2ncnc(OCc3ccccc3Br)c2c1
solubility kinetic at 5 min: 20 µM (≈ 7.68 µg/mL)

COC(=O)c1cccc2c(OCc3cc(C(C)=O)ccc3OC)ncnc12
solubility kinetic at 5 min: > 100 µM

COc1ccc(C(C)=O)cc1COc1ncnc2cc(Cl)ccc12
solubility kinetic at 5 min: 26 µM (≈ 8.91 µg/mL)

Clc1cc(Cl)c2ncnc(OCc3ccccc3-c3cccnc3)c2c1
solubility kinetic at 5 min: 60 µM (≈ 22.9 µg/mL)

O=C(O)c1ccccc1COc1ncnc2c(Cl)cc(Cl)cc12
solubility kinetic at 5 min: > 100 µM

COc1ccc(C(C)=O)cc1COc1ncnc2c(-c3ccccc3)cccc12
solubility kinetic at 5 min: 35 µM (≈ 13.5 µg/mL)

CC(=O)c1cccc(COc2ncnc3c(Cl)cc(Cl)cc23)c1
solubility kinetic at 5 min: 46 µM (≈ 16 µg/mL)

COc1ccc(C(C)=O)cc1COc1ncnc2c(Cl)cc(C)cc12
solubility kinetic at 5 min: 66 µM (≈ 23.5 µg/mL)

O=C(O)c1ccc(COc2ncnc3c(Cl)cc(Cl)cc23)cc1
solubility kinetic at 5 min: > 100 µM

COc1ccc(C(C)=O)cc1COc1ncnc2c(Cl)cc(Cl)cc12
solubility kinetic at 5 min: 62 µM (≈ 23.4 µg/mL)

COCCOc1ccccc1COc1ncnc2c(Cl)cc(Cl)cc12
solubility kinetic at 5 min: 42 µM (≈ 15.9 µg/mL)

COc1ccc(C(C)=O)cc1COc1ncnc2c(C)cc(C)cc12
solubility kinetic at 5 min: > 100 µM

Cc1ccc(COc2ncnc3c(Cl)cc(Cl)cc23)cc1
solubility kinetic at 5 min: 12 µM (≈ 3.83 µg/mL)

COc1ccc(C(C)=O)cc1COc1ncnc2c(C)cc(Cl)cc12
solubility kinetic at 5 min: 50 µM (≈ 17.8 µg/mL)

Clc1ccc(COc2ncnc3c(Cl)cc(Cl)cc23)cc1
solubility kinetic at 5 min: 18 µM (≈ 6.11 µg/mL)

CCc1ccccc1COc1ncnc2c(Cl)cc(Cl)cc12
solubility kinetic at 5 min: 28 µM (≈ 9.33 µg/mL)

COc1ccc(C(C)=O)cc1COc1ncnc2c(C3CC3)cccc12
solubility kinetic at 5 min: 27 µM (≈ 9.41 µg/mL)

COc1cccc(OC)c1COc1ncnc2c(Cl)cc(Cl)cc12
solubility kinetic at 5 min: 21 µM (≈ 7.67 µg/mL)

COc1cc(COc2ncnc3c(Cl)cc(Cl)cc23)cc(C(C)=O)c1
solubility kinetic at 5 min: 21 µM (≈ 7.92 µg/mL)

COc1ccc(C(C)=O)cc1COc1ncnc2c(N3CCOCC3)cccc12
solubility kinetic at 5 min: > 100 µM

COc1ccc(COc2ncnc3c(Cl)cc(Cl)cc23)cc1C(C)=O
solubility kinetic at 5 min: 39 µM (≈ 14.7 µg/mL)

COc1ccc(C(C)=O)cc1COc1ncnc2cc(Cl)cc(Cl)c12
solubility kinetic at 5 min: 41 µM (≈ 15.5 µg/mL)

COc1ccc(C(C)=O)cc1COc1ncnc2c(O)cccc12
solubility kinetic at 5 min: 55 µM (≈ 17.8 µg/mL)

Fc1ccc(COc2ncnc3c(Cl)cc(Cl)cc23)cc1
solubility kinetic at 5 min: 22 µM (≈ 7.11 µg/mL)

COc1ccc(C(C)=O)cc1COc1ncnc2c(C(F)(F)F)cccc12
solubility kinetic at 5 min: 33 µM (≈ 12.4 µg/mL)

COc1cccc(C(C)=O)c1COc1ncnc2c(Cl)cc(Cl)cc12
solubility kinetic at 5 min: 44 µM (≈ 16.6 µg/mL)

COc1ccc(COc2ncnc3c(Cl)cc(Cl)cc23)cc1
solubility kinetic at 5 min: 44 µM (≈ 14.7 µg/mL)

COc1cc(C(C)=O)ccc1COc1ncnc2c(Cl)cc(Cl)cc12
solubility kinetic at 5 min: 26 µM (≈ 9.81 µg/mL)

N#Cc1ccc(COc2ncnc3c(Cl)cc(Cl)cc23)cc1
solubility kinetic at 5 min: 25 µM (≈ 8.25 µg/mL)

CC(=O)c1ccc(-c2cccnc2)c(COc2ncnc3c(Cl)cc(Cl)cc23)c1
solubility kinetic at 5 min: > 100 µM

COc1ccc(C(C)=O)cc1COc1ncnc2c(Cl)cccc12
solubility kinetic at 5 min: 58 µM (≈ 19.9 µg/mL)

COc1ccc(C(C)=O)cc1COc1ncnc2c(OC)cccc12
solubility kinetic at 5 min: > 100 µM

Fc1ccccc1COc1ncnc2c(Cl)cc(Cl)cc12
solubility kinetic at 5 min: 26 µM (≈ 8.4 µg/mL)

Clc1cc(Cl)c2ncnc(OCc3ccccc3)c2c1
solubility kinetic at 5 min: 25 µM (≈ 7.63 µg/mL)

COC(=O)c1ccc(COc2ncnc3c(Cl)cc(Cl)cc23)cc1
solubility kinetic at 5 min: 25 µM (≈ 9.08 µg/mL)

COc1c(COc2ncnc3c(Cl)cc(Cl)cc23)cccc1C(C)=O
solubility kinetic at 5 min: 57 µM (≈ 21.5 µg/mL)

COc1ccccc1COc1ncnc2c(Cl)cc(Cl)cc12
solubility kinetic at 5 min: 32 µM (≈ 10.7 µg/mL)

CCc1ccc(C(C)=O)cc1COc1ncnc2c(Cl)cc(Cl)cc12
solubility kinetic at 5 min: 21 µM (≈ 7.88 µg/mL)

FC(F)(F)c1ccc(COc2ncnc3c(Cl)cc(Cl)cc23)cc1
solubility kinetic at 5 min: 18 µM (≈ 6.72 µg/mL)

COc1ccccc1CSc1ncnc2c(Cl)cc(Cl)cc12
solubility kinetic at 5 min: 24 µM (≈ 8.43 µg/mL)

CC(=O)c1ccccc1COc1ncnc2c(Cl)cc(Cl)cc12
solubility kinetic at 5 min: 43 µM (≈ 14.9 µg/mL)
